# Laboratory results reported in patent US12577232B2, “N-heterocycle substituted tryptamine derivatives and methods of using” (ENVERIC B[…] INC., priority 2024, dated 2026).
# Like-named read-outs stand apart in the source and are kept apart here.
# Columns and labels:
# [1] = molecular target: T1, 5-HT1A receptor (Homo sapiens, UniProt P08908); experiment: 5-HT1A receptor radioligand competition assay (SPA, [3H]8-hydroxy-DPAT); assay type: binding; conditions: 0.5 nM hot 8-hydroxy-DPAT; membranes containing 5-HT1A
# T1 construct: purchased Perkin Elmer 6110501400UA
# T1 sequence (P08908 1-422): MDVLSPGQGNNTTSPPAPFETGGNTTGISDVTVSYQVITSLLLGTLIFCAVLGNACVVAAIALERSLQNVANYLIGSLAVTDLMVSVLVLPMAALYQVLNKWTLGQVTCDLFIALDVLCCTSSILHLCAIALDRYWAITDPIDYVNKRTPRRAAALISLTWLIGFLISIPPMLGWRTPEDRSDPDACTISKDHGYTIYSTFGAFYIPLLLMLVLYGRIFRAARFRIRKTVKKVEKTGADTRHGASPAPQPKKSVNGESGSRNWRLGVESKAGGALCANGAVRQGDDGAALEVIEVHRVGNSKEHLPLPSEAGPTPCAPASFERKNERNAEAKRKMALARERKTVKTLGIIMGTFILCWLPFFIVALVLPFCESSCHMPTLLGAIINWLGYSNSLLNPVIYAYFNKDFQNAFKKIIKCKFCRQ
# Protocol: 5-HT1A receptor. […] After incubation, the samples were read on a MicroBeta 2 Microplate Counter (perkinelmer.com). Non-specific binding was carried out in the presence of 100 μM of metergoline (M3668-500MG, Sigma-Aldrich). Equilibrium binding constant for 8-hydroxy-DPAT (KD) was determined from a saturation binding curve using one-site saturation binding analysis from GraphPad PRISM software (Version 9.2.0). Test compound was dissolved to 100 mM in dimethylsulfoxide (DMSO), and dilutions were carried out in assay buffer. […] Ki values were calculated from the competition displacement data using the competitive binding analysis from GraphPad PRISM software. […] Conversely, blank preparations lacking any drug (simply termed ‘DMSO’ samples) were used as negative controls, in addition to those containing tryptophan which is not known to bind the 5-HT1A receptor.
# [2] = molecular target: T2, 5-HT2A receptor (Homo sapiens, UniProt P28223); experiment: 5-HT2A receptor radioligand competition assay (SPA, [3H]ketanserin); assay type: binding; conditions: 1 nM [3H]ketanserin, membranes containing 5-HT2A
# T2 construct: purchased PerkinElmer ES-313-M400UA
# Protocol: Competition assays were performed as for 5-HT1A assays with the following differences. […] Determination of non-specific binding was carried out in the presence of […] of spiperone (S7395-250MG, Sigma-Aldrich). Equilibrium binding constant for ketanserin (Kd) was determined from saturation binding curves using the ‘one-site saturation binding analysis’ method in GraphPad PRISM software (Version 9.2.0).
# [3] = molecular target: T3, human serotonin transporter (SERT) (Homo sapiens, UniProt P31645); experiment: biochemical; assay type: binding
# T3 construct: purchased PerkinElmer RBHSTM400UA
# Protocol: A commonly applied SERT binding assay involves competition binding assays employing radiolabelled ligands. […] Radioactive binding assays were carried out using the Scintillation Proximity Assay (SPA). For saturation binding assay, mixtures of 9 μg of membrane containing human SERT was pre-coupled to 1 mg of SPA beads at room temperature in a tube rotator for 1 hour in binding buffer (50 mM Tris-HCl pH7.4, 120 mM NaCl, 5 mM KCl, 1 mM ascorbic acid, 10 μM pargyline HCl). […] After incubation, the samples are read on a MicroBeta 2 Microplate Counter. Non-specific binding was carried out in the presence of 200 μM of clomipramine hydrochloride (C7291-1G, Sigma). Equilibrium binding constant for imipramine (KD) was determined from saturation binding curve using one-site saturation binding analysis from GraphPad PRISM software (Version 9.2.0). All test compounds were dissolved to 100 mM in DMSO and dilutions were carried out in assay buffer. […] Ki values were calculated from the competition displacement data using the competitive binding analysis from GraphPad PRISM software. […] Vehicle (DMSO) without drug was used as a negative control.
# [4] = test system: human model (NT2) neurons; experiment: Neuroplastogenicity (neurite outgrowth) assay in NT2 neurons; assay type: cell-based; parameters: key: a positive (+) designation indicating strong evidence of enhanced neurite outgrowth in drug-treated NT2 cells compared to vehicle-treated cells; a negative (−) designation indicating weak or no evidence of enhanced neurite outgrowth in drug-treated NT2 cells compared to vehicle-treated cells; conditions: 1 or 10 μM, 48 h, visual inspection vs vehicle (0.1% DMSO)
# Source text: Classic psychedelics such as psilocybin and DMT show potential to treat anxiety and depression, and it has been theorized that such long-term improvements arise because these drugs rapidly and lastingly stimulate neuroplasticity (Calder and Hasler, 2023, Neuropsychopharmacol. 48:104-112). Thus, it was of interest to determine the potential of new compounds as neuroplastogens. Herein, we assess the capacity of various compounds to enhance neurite outgrowth in human model (NT2) neurons.
# Human NT2/D1 precursor cells were purchased from the American Type Culture Collection (ATCC, Manassas, VA, USA). Neuronal differentiation was carried out as previously described (Roloff et al., 2015, PloS ONE 10:e0118536) with minor modifications. Firstly, NT2/D1 cells were seeded in T-25 suspension culture flasks (REF #690190, Greiner bio-one, Germany). Each flask contains a minimum of 5×10^6 cells in 10 ml of DMEM/F12 supplemented with 10% fetal bovine serum (FBS), 1% penicillin and streptomycin and 10 μM retinoic acid (RA) medium to start neuronal differentiation. The cells were cultured for 3 days in free floating medium. At the end of the incubation cells were trypsinized and collected by centrifugation, mechanically dispersed, and counted. Counted cells were seeded along Poly D-Lysine (PDL) coated cover slips (12 mm; diameter round, Fisher Scientific; GG-12-PDL) containing a minimum of 0.1×10^5 cells in culture medium without RA. The next day culture medium was replaced with RA medium containing 2% of FBS. These cells cultured for 5 days and two days later, RA medium was changed.
# After cells had successfully attached and established along coverslips, the RA medium was replaced with new medium containing 2% FBS and one of the following: (1) test compound (1 or 10 μM), (2) RhoK (ROCK) inhibitor Y-27632 (1 μM) as a positive control (Dihydrochloride; Sigma-Aldrich) (Roloff et al., 2015, PloS ONE 10:e0118536); (3) DMT (1 or 10 μM) as a positive control (Calder and Hasler, 2023, Neuropsychopharmacol. 48:104-112), or (4) vehicle (0.1% DMSO) as a negative control. These cells were incubated for 48 hours under standard conditions (370C, 5% CO2). The cells cultured along coverslips were collected after 48 hours of treatment. The coverslips washed with calcium chloride and magnesium chloride-free phosphate buffered saline (PBS) pH 7.4 (Gibco, #70011-044) and fixed in paraformaldehyde (PFA) 4% in PBS (#J61899, thermoscientific) for 15 min at room temperature (RT) and washed three times with 0.01% of Triton-X100 in PBS (PBST) to remove remaining PFA and to permeabilize the cells. Non-specific binding sites were blocked with 5% of Bovine Serum Albumin (BSA) solution (#9048-46-8, Millipore) in PBST for 60 minutes at RT. Rabbit monoclonal antibody β-III-tubulin (1:5,000, ab52623, Abcam) was applied overnight (O/N) at 4° C. Next day cells are washed three times in PBST, neurons were incubated with secondary antibody Donkey anti-rabbit IgG(H+L) Alexa Fluor™ Plus488 (1:5000 #A32790, Invitrogen) for 1 hour at RT. These coverslips were mounted on Gluoromount-G™, with 4′6-diamidino-2′henylindoldihydrochloride (DAPI) (#E141818, Invitrogen). The immunofluorescence images were analyzed using an Olympus VS110 slide scanner microscope.
# B-III-Tubulin immunofluorescence was quantified using ImageJ. Briefly, Corrected Total Cell Fluorescence (CTCF) was acquired for at least ˜8-10 representative cells, where CTCF=Integrated Density−[Area of selected cell*Mean Fluorescence of background]. The CTCF values, referred to herein as ‘signal intensities’, were used to calculate overall means±SD for each treatment. One-Way ANOVA was used to compare treatments. Further, the mean of each treatment was compared with the mean of the control treatment (RA-differentiated cells treated with vehicle, 0.1% DMSO) using Dunnett's multiple comparison procedure. […]
# T2 sequence (P28223 whole entry): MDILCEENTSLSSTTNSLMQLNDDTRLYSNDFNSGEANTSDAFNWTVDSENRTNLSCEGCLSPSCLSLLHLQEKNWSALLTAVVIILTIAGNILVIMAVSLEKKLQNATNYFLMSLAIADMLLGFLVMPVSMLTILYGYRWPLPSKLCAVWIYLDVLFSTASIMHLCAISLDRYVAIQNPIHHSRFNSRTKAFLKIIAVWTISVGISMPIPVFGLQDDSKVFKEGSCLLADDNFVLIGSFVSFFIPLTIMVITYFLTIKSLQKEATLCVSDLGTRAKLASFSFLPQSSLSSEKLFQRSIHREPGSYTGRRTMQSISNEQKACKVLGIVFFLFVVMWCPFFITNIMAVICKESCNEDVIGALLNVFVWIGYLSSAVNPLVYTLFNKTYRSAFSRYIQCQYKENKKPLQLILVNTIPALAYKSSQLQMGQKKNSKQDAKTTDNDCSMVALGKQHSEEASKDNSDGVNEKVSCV
# T3 sequence (P31645 whole entry): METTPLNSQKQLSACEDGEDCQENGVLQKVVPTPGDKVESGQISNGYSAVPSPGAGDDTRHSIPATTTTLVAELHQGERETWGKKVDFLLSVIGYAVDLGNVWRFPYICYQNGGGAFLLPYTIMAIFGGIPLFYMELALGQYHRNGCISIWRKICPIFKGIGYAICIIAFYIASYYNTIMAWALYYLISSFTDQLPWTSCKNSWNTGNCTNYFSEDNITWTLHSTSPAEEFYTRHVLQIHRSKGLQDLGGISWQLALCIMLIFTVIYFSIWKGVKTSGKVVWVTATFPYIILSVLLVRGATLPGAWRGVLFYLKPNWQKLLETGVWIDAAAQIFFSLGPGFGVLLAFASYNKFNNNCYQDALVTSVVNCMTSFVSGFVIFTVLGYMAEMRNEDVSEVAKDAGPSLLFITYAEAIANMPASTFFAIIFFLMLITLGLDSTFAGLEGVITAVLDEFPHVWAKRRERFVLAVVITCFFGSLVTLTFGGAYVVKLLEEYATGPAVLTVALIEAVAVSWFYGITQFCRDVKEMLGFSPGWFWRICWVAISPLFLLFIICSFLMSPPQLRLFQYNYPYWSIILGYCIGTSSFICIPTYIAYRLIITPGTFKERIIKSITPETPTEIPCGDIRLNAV
Structure (SMILES),Ki [1],"Ki ([2]; read-out: 5-HT2A, Ki)",Ki [3],"Ki ([2]; 5-HT2A, Ki)","Ki ([3]; 1 nM imipramine, membranes containing human SERT, read-out: SERT, Ki)",Evidence of neurite outgrowth: Yes (+) or No (−) [4]
"CNC(C)Cc1ccc2c(c1)OCO2 (stereo not drawn) [MDMA, 3,4-methylenedioxymethamphetamine, reference compound]",11 µM,39.9 µM,5.8 µM,–,–,–
"CN(C)CCc1c[nH]c2ccccc12 [DMT, dimethyltryptamine, reference compound]",–,–,–,1.03 µM,2.58 µM,+
